pIC50: −log10 of the molar value. Where two headings read alike, the source gives them in different places.
Tests used:
PBMCs = assay: LPS-induced IL-8 release in PBMC cells (assay b); type: cell-based, human; conditions: LPS-stimulated PBMCs, read-out: IC50 Values for Inhibition of Cytokine Release, PBMCs IL-8
Procedure: Peripheral blood mononuclear cells (PBMCs) from healthy subjects are separated from whole blood using a density gradient (Lymphoprep, Axis-Shield Healthcare). The PBMCs are seeded in 96 well plates and treated with compounds at the desired concentration for 2 hours before addition of 1 ng/mL LPS (Escherichia Coli 0111:B4 from Sigma Aldrich) for 24 hours under normal tissue culture conditions (37° C., 5% CO2). The supernatant is harvested for determination of IL-8 and TNFα concentrations by sandwich ELISA (Duo-set, R&D systems) and read on the fluorescence microplate reader (Varioskan® Flash, ThermoFisher Scientific). The concentration at 50% inhibition (IC50) of IL-8 and TNFα production is calculated from the dose response curve.

GSK 3α = GSK 3α (Homo sapiens (Human), UniProt P49840); assay: GSK 3α enzyme inhibition (FRET, Z-LYTE, Method 2); type: biochemical; conditions: read-out: IC50 Values for Enzyme Inhibition, GSK3α
Sequence of GSK 3α (P49840 whole entry): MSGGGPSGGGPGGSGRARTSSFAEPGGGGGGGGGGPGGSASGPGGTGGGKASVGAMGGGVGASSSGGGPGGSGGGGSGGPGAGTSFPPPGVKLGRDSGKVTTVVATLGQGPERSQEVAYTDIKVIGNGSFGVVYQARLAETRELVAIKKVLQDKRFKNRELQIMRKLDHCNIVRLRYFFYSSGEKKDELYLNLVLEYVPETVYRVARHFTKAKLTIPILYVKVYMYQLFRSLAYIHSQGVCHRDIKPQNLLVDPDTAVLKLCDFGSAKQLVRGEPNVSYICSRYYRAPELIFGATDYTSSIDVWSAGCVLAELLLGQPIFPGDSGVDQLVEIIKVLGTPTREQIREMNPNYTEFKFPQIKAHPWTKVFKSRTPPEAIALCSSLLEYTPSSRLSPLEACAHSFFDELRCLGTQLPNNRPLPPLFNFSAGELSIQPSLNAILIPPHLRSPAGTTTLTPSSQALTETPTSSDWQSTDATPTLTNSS
Procedure: The enzyme inhibitory activities of compounds disclosed herein are determined by FRET using synthetic peptides labelled with both donor and acceptor fluorophores (Z-LYTE, Invitrogen Ltd., Paisley, UK).
The following two assay variants can be used for determination of GSK 3α inhibition.
The inhibitory activities of compounds of the invention against the GSK 3α enzyme isoform (Invitrogen), are evaluated by determining the level of activation/phosphorylation of the target peptide. The GSK3-α protein (500 ng/mL, 2.5 μL) is mixed with the test compound (2.5 μL at either 4 μg/mL, 0.4 μg/mL, 0.04 μg/mL, or 0.004 μg/mL) for 2 hr at RT. The FRET peptide (8 μM, 2.5 μL), which is a phosphorylation target for GSK3α, and ATP (40 μM, 2.5 μL) are then added to the enzyme/compound mixture and the resulting mixture incubated for 1 hr. Development reagent (protease, 5 μL) is added for 1 hr prior to detection in a fluorescence microplate reader (Varioskan® Flash, ThermoFisher Scientific).
In all cases, the site-specific protease cleaves non-phosphorylated peptide only and eliminates the FRET signal. Phosphorylation levels of each reaction are calculated using the ratio of coumarin emission (donor) over fluorescein emission (acceptor), for which high ratios indicate high phosphorylation and low ratios indicate low phosphorylation levels. The percentage inhibition of each reaction is calculated relative to non-inhibited control and the 50% inhibitory concentration (IC50 value) is then calculated from the concentration-response curve.
This method follows the same steps as Method 1 above, but utilises a shorter period of mixing of the test compound (105 minutes instead of 2 hours) with the GSK3-α protein.

Row | SMILES | pIC50 (GSK 3α) | pIC50 (PBMCs) | pIC50 (PBMCs; Homo sapiens, PBMC)
1 | COc1ccccc1Nc1nccc(Oc2ccc(NC(=O)Nc3cc(C(C)(C)C)cc(P(C)(C)=O)c3OC)c3ccccc23)n1 [15(f), 1-(5-(tert-butyl)-3-(dimethylphosphoryl)-2-methoxyphenyl)-3-(4-((2-((2-methoxy-phenyl)amino)pyrimidin-4-yl)oxy)naphthalen-1-yl)urea] | 5.51 | 7.58 | 
2 | COc1c(NC(=O)Nc2ccc(Oc3ccnc(Nc4ccccc4)n3)c3ccccc23)cc(C(C)(C)C)cc1[S+](C)[O-] (centres unmarked) [15(k), 1-(5-(tert-butyl)-2-methoxy-3-(methylsulfinyl)phenyl)-3-(4-((2-(phenylamino)pyrimidin-4-yl)oxy)naphthalen-1-yl)urea] | 5.93 |  | 8.25
3 | COc1c(NC(=O)Nc2ccc(Oc3ccnc(Nc4ccccc4)n3)c3ccccc23)cc(C(C)(C)C)cc1S(C)(=O)=O [15(l), 1-(5-(tert-butyl)-2-methoxy-3-(methylsulfonyl)phenyl)-3-(4-((2-(phenylamino)pyrimidin-4-yl)oxy)naphthalen-1-yl)urea] | 5.09 |  | 7.76
4 | COc1c(CS(C)(=O)=O)cc(C(C)(C)C)cc1NC(=O)Nc1ccc(Oc2ccnc(Nc3ccccc3)n2)c2ccccc12 [15(n), 1-(5-(tert-butyl)-2-methoxy-3-((methylsulfonyl)methyl)phenyl)-3-(4-((2-(phenylamino)-pyrimidin-4-yl)oxy)naphthalen-1-yl)urea] | 5.78 |  | 7.87
5 | COc1c(NC(=O)Nc2ccc(Oc3ccnc(Nc4ccccc4)n3)c3ccccc23)cc(C(C)(C)C)cc1C(=O)NCCN1CCOCC1 [15(p), 5-(tert-butyl)-2-methoxy-N-(2-morpholinoethyl)-3-(3-(4-((2-(phenylamino)pyrimidin-4-yl)oxy)naphthalen-1-yl)ureido)benzamide] | 5.71 |  | 8.03
6 | COc1c(NC(=O)Nc2ccc(Oc3ccnc(Nc4cncnc4)n3)c3ccccc23)cc(C(C)(C)C)cc1P(C)(C)=O [15(r), 1-(5-(tert-butyl)-3-(dimethylphosphoryl)-2-methoxyphenyl)-3-(4-((2-(pyrimidin-5-ylamino)pyrimidin-4-yl)oxy)naphthalen-1-yl)urea] | 6.73 |  | 8.32
7 | COc1c(NC(=O)Nc2ccc(Oc3ccnc(Nc4ccccc4)n3)c3ccccc23)cc(C(C)(C)C)cc1C(=O)NCCN1CCCC1 [15(u), 5-(tert-butyl)-2-methoxy-3-(3-(4-((2-(phenylamino)pyrimidin-4-yl)oxy)naphthalen-1-yl)ureido)-N-(2-(pyrrolidin-1-yl)ethyl)benzamide] | 5.51 |  | 8.10
8 | COc1c(NC(=O)Nc2ccc(Oc3ccnc(Nc4ccc5c(c4)OCCO5)n3)c3ccccc23)cc(C(C)(C)C)cc1P(C)(C)=O [15(w), 1-(5-(tert-butyl)-3-(dimethylphosphoryl)-2-methoxyphenyl)-3-(4-((2-((2,3-dihydrobenzo[b][1,4]dioxin-6-yl)amino)pyrimidin-4-yl)oxy)naphthalen-1-yl)urea] | 5.78 |  | 7.98
9 | COc1c(NC(=O)Nc2ccc(Oc3ccnc(Nc4cnoc4)n3)c3ccccc23)cc(C(C)(C)C)cc1P(C)(C)=O [15(z), 1-(5-(tert-butyl)-3-(dimethylphosphoryl)-2-methoxyphenyl)-3-(4-((2-(isoxazol-4-ylamino)pyrimidin-4-yl)oxy)naphthalen-1-yl)urea] | 5.82 |  | 7.44
10 | COc1c(CN(C)C(C)=O)cc(C(C)(C)C)cc1NC(=O)Nc1ccc(Oc2ccnc(Nc3ccccc3)c2)c2ccccc12 [38(aa), N-(5-(tert-Butyl)-2-methoxy-3-(3-(4-((2-(phenylamino)pyridin-4-yl)oxy)naphthalen-1-yl)ureido)benzyl)-N-methylacetamide] | 5.08 |  | 8.60
11 | COc1cc(Nc2cc(Oc3ccc(NC(=O)Nc4cc(C(C)(C)C)cc(CNC(C)=O)c4OC)c4ccccc34)ccn2)cc(C(N)=O)c1 [38(ac), 3-((4-((4-(3-(3-(Acetamidomethyl)-5-(tert-butyl)-2-methoxyphenyl)ureido)naphthalen-1-yl)oxy)pyridin-2-yl)amino)-5-methoxybenzamide] | 6.08 |  | 9.40
12 | COc1cc(Nc2cc(Oc3ccc(NC(=O)Nc4cc(C(C)(C)C)cc(CC(N)=O)c4OC)c4ccccc34)ccn2)cc(P(C)(C)=O)c1 [38(ae), 2-(5-(tert-Butyl)-3-(3-(4-((2-((3-(dimethylphosphoryl)-5-methoxyphenyl)amino)pyridin-4-yl)oxy)naphthalen-1-yl)ureido)-2-methoxyphenyl)acetamide] | 6.10 |  | 8.92

Now from value to compound, other results behind:

Row | pIC50 (GSK 3α) | SMILES | pIC50 (PBMCs) | pIC50 (PBMCs; Homo sapiens, PBMC)
13 | 6.11 | COc1ccc(Nc2nccc(Oc3ccc(NC(=O)Nc4cc(C(C)(C)C)cc(P(C)(C)=O)c4OC)c4ccccc34)n2)cc1 [15(h), 1-(5-(tert-butyl)-3-(dimethylphosphoryl)-2-methoxyphenyl)-3-(4-((2-((4-methoxy-phenyl)amino)pyrimidin-4-yl)oxy)naphthalen-1-yl)urea] |  | 8.34
14 | 6.44 | COc1ccc(Nc2nccc(Oc3ccc(NC(=O)Nc4cc(C(C)(C)C)cc(P(C)(C)=O)c4OC)c4ccccc34)n2)cc1OC [15(i), 1-(5-(tert-butyl)-3-(dimethylphosphoryl)-2-methoxyphenyl)-3-(4-((2-((3,4-dimethoxyphenyl)amino)pyrimidin-4-yl)oxy)naphthalen-1-yl)urea] |  | 8.82
15 | 5.24 | COc1c(NC(=O)Nc2ccc(Oc3ccnc(Nc4ccccn4)n3)c3ccccc23)cc(C(C)(C)C)cc1P(C)(C)=O [15(o), 1-(5-(tert-butyl)-3-(dimethylphosphoryl)-2-methoxyphenyl)-3-(4-((2-(pyridin-2-ylamino)pyrimidin-4-yl)oxy)naphthalen-1-yl)urea] |  | 7.69
16 | 6.62 | COc1c(NC(=O)Nc2ccc(Oc3ccnc(Nc4cnn(C)c4)n3)c3ccccc23)cc(C(C)(C)C)cc1P(C)(C)=O [15(s), 1-(5-(tert-butyl)-3-(dimethylphosphoryl)-2-methoxyphenyl)-3-(4-((2-((1-methyl-1H-pyrazol-4-yl)amino)pyrimidin-4-yl)oxy)naphthalen-1-yl)urea] |  | 8.85
17 | 6.55 | COc1c(NC(=O)Nc2ccc(Oc3ccnc(Nc4cccc(OS(C)(=O)=O)c4)n3)c3ccccc23)cc(C(C)(C)C)cc1P(C)(C)=O [15(t), 3-((4-((4-(3-(5-(tert-butyl)-3-(dimethylphosphoryl)-2-methoxyphenyl)ureido)-naphthalen-1-yl)oxy)pyrimidin-24)amino)phenyl methanesulfonate] |  | 9.30
18 | 6.52 | COc1c(NC(=O)Nc2ccc(Oc3ccnc(Nc4ccc5c(c4)NC(=O)C5)n3)c3ccccc23)cc(C(C)(C)C)cc1P(C)(C)=O [15(v), 1-(5-(tert-butyl)-3-(dimethylphosphoryl)-2-methoxyphenyl)-3-(4-((2-((2-oxoindolin-6-yl)amino)pyrimidin-4-yl)oxy)naphthalen-1-yl)urea] |  | 8.55
19 | 6.71 | COc1c(NC(=O)Nc2ccc(Oc3ccnc(Nc4ccc5c(c4)CS(=O)(=O)C5)n3)c3ccccc23)cc(C(C)(C)C)cc1P(C)(C)=O [15(y), 1-(5-(tert-butyl)-3-(dimethylphosphoryl)-2-methoxyphenyl)-3-(4-((2-((2,2-dioxido-1,3-dihydrobenzo[c]thiophen-5-yl)amino)pyrimidin-4-yl)oxy)naphthalen-1-yl)urea] |  | 9.05

Source: patent US9890185B2, “Urea derivatives useful as kinase inhibitors” (Respivert Limited, priority 2013, dated 2018)
